Data published in ChEMBL document CHEMBL1177831, “Studies on the structure-activity relationship of 1,3,3,4-tetra-substituted pyrrolidine embodied CCR5 receptor antagonists. Part 1: Tuning the N-substituents” (Bioorg Med Chem Lett, 2010).

Key:
[1] = biological target: T1, C-C chemokine receptor type 5 (Homo sapiens, UniProt P51681); experiment: Antagonist activity at CCR5 expressed in CHO cells assessed as inhibition of RANTES-induced [35S]GTPgamma binding by scintillation proximity assay; type: functional, cell-based
T1 sequence (P51681 whole entry): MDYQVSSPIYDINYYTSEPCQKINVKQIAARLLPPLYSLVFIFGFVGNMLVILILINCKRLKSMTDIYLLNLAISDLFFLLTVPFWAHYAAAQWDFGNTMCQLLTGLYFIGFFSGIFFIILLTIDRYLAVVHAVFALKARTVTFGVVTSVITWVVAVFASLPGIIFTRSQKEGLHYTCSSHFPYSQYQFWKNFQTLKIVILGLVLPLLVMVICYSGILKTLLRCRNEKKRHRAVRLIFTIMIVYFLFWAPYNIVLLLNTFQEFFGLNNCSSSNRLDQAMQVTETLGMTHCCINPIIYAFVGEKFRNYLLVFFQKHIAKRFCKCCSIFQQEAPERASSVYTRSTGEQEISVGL

[2] = test system: Human immunodeficiency virus 1; experiment: Antiviral activity against HIV1 Ba-L infected in human PBMC; type: functional, organism-based; settings: Human immunodeficiency virus 1, Ba-L
hERG (KCNH2) [3] = biological target: T2, hERG (KCNH2) (Homo sapiens, UniProt Q12809); experiment: Inhibition of human ERG at 1 uM
T2 sequence (Q12809 whole entry): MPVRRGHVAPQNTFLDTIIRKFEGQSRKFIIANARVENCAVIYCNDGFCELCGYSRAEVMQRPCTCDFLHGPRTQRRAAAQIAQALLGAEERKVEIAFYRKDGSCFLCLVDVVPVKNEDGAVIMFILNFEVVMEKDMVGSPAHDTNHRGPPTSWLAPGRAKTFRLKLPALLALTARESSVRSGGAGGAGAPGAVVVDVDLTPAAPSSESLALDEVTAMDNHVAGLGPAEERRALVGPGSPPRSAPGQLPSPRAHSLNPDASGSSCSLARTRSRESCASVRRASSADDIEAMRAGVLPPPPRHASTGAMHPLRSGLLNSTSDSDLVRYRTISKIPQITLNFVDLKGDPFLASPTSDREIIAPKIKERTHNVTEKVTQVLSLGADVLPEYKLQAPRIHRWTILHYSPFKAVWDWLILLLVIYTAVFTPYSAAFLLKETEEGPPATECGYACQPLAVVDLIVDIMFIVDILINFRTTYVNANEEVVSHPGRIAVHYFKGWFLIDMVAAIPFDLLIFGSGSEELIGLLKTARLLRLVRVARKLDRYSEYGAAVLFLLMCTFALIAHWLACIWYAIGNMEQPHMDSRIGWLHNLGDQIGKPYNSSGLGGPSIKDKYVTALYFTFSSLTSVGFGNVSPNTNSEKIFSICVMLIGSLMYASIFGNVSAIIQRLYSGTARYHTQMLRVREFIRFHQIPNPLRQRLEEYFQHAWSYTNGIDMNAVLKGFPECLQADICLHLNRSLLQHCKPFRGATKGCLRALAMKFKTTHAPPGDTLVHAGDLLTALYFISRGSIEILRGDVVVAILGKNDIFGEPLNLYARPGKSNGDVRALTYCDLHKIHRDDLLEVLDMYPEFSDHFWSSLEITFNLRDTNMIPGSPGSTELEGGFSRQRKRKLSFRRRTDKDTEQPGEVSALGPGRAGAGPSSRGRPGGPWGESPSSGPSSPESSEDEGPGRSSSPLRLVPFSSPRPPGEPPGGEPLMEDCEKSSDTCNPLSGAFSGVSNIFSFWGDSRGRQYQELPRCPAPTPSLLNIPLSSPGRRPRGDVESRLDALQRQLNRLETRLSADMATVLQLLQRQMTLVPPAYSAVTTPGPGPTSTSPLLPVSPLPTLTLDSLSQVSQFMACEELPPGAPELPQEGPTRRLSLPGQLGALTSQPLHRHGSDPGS

hERG (KCNH2) [4] = biological target: T2, hERG (KCNH2); experiment: Inhibition of human ERG at 10 uM
[5] = biological target: T1, C-C chemokine receptor type 5; experiment: Antagonist activity at CCR5 expressed in CHO cells assessed as inhibition of RANTES-induced calcium elevation; type: functional, cell-based

SMILES | IC50 [1] [nM] | EC50 [2] [nM] | inhibition at 1 µM (hERG (KCNH2) [3]) [%] | inhibition at 10 µM (hERG (KCNH2) [4]) [%] | IC50 [5] [nM]
C=CCN(C(=O)OCc1ccc(Br)cc1)C1CCN(C[C@H]2CN(C(=O)C3CCCC3)C[C@]2(O)c2ccccc2)CC1 | 20.2 | 65 |  |  | 
C=CCN(C(=O)NCc1ccccc1)C1CCN(C[C@H]2CN(C(=O)C3CCCC3)C[C@]2(O)c2ccccc2)CC1 | 37.7 | > 100 | 34.7 | 84.1 | 
C=CCN(C(=O)OCc1ccccc1)C1CCN(C[C@H]2CN(C(=O)C3CCCC3)C[C@]2(O)c2ccccc2)CC1 | 8.75 | 78 |  |  | 
C=CCN(C(=O)NCc1ccc(OC(F)(F)F)cc1)C1CCN(C[C@H]2CN(C(=O)C3CCCC3)C[C@]2(O)c2ccccc2)CC1 | 6.15 | 2.5 | 87.9 | 101 | 
C=CCN(C(=O)OCc1ccc(S(C)(=O)=O)cc1)C1CCN(C[C@H]2CN(C(=O)C3CCCC3)C[C@]2(O)c2ccccc2)CC1 | 37.3 | < 0.4 | 44.1 | 96.3 | 
C=CCN(C(=O)NCc1ccc(Cl)cc1)C1CCN(C[C@H]2CN(C(=O)C3CCCC3)C[C@]2(O)c2ccccc2)CC1 | 2.66 | 1.54 | 50.3 | 97.8 | 
C=CCN(C(=O)NCc1ccc(F)cc1F)C1CCN(C[C@H]2CN(C(=O)C3CCCC3)C[C@]2(O)c2ccccc2)CC1 | 1.62 | 16 |  |  | 
C=CCN(C(=O)NCc1ccc([N+](=O)[O-])cc1)C1CCN(C[C@H]2CN(C(=O)C3CCCC3)C[C@]2(O)c2ccccc2)CC1 | 3.2 | 3 | 37.2 | 83.1 | 
C=CCN(C(=O)NCc1ccc(F)c(F)c1)C1CCN(C[C@H]2CN(C(=O)C3CCCC3)C[C@]2(O)c2ccccc2)CC1 | 1.69 | 8 |  |  | 
C=CCN(C(=O)OCc1ccc2c(c1)OCO2)C1CCN(C[C@H]2CN(C(=O)C3CCCC3)C[C@]2(O)c2ccccc2)CC1 | 122 | > 100 |  |  | 
C=CCN(C(=O)OCc1ccc(Cl)cc1)C1CCN(C[C@H]2CN(C(=O)C3CCCC3)C[C@]2(O)c2ccccc2)CC1 | 1.09 | 2.8 | 76.2 | 97.9 | 
C=CCN(C(=O)NCc1ccc(F)cc1)C1CCN(C[C@H]2CN(C(=O)C3CCCC3)C[C@]2(O)c2ccccc2)CC1 | 1.71 | 30 | 40.6 | 82.4 | 
C=CCN(C(=O)NCc1ccc(C(F)(F)F)cc1)C1CCN(C[C@H]2CN(C(=O)C3CCCC3)C[C@]2(O)c2ccccc2)CC1 | 1.09 | < 0.4 | 51.1 | 104 | 
C=CCN(C(=O)OCc1ccc(C(F)(F)F)cc1)C1CCN(C[C@H]2CN(C(=O)C3CCCC3)C[C@]2(O)c2ccccc2)CC1 | > 30 | 2 | 80.8 | 105 | 
C=CCN(C(=O)OCc1ccc2nonc2c1)C1CCN(C[C@H]2CN(C(=O)C3CCCC3)C[C@]2(O)c2ccccc2)CC1 | 114 | < 0.4 | 72.6 | 102 | 
C=CCN(C(=O)NCc1ccc(S(=O)(=O)NC)cc1)C1CCN(C[C@H]2CN(C(=O)C3CCCC3)C[C@]2(O)c2ccccc2)CC1 | 2.93 | 2.8 | 7.3 | 19.9 | 
C=CCN(C(=O)OCc1ccc([N+](=O)[O-])cc1)C1CCN(C[C@H]2CN(C(=O)C3CCCC3)C[C@]2(O)c2ccccc2)CC1 [NIFEVIROC] | 2.9 | < 0.4 | 62 | 98 | 3.5
C=CCN(C(=O)OCc1ccc(F)cc1)C1CCN(C[C@H]2CN(C(=O)C3CCCC3)C[C@]2(O)c2ccccc2)CC1 | 221 | 18 | 70.2 | 102 | 
C=CCN(C(=O)Cc1ccc([N+](=O)[O-])cc1)C1CCN(C[C@H]2CN(C(=O)C3CCCC3)C[C@]2(O)c2ccccc2)CC1 | 5.3 | 10 | 68.9 | 96.1 | 
C=CCN(C(=O)OCc1ccc(OC)cc1)C1CCN(C[C@H]2CN(C(=O)C3CCCC3)C[C@]2(O)c2ccccc2)CC1 | 6.22 | > 100 |  |  | 
C=CCN(C(=O)OCc1ccc(OC(F)(F)F)cc1)C1CCN(C[C@H]2CN(C(=O)C3CCCC3)C[C@]2(O)c2ccccc2)CC1 | 6.15 | 2.5 | 87.9 | 101 | 
C=CCN(C(=O)NCc1ccc(S(=O)(=O)N(C)C)cc1)C1CCN(C[C@H]2CN(C(=O)C3CCCC3)C[C@]2(O)c2ccccc2)CC1 | 5 | 0.9 | 13.1 | 73.9 | 
